Measured values: PMC11593225, “Polyphenolic Compounds Activate SERCA1a and Attenuate Methylglyoxal- and Palmitate-Induced Impairment in Pancreatic INS-1E Beta Cells” (Cells, 2024)
“Also recorded” adds a separate entry of the source. Like-named read-outs stand apart in the source and are kept apart here.

How the values were obtained:
INS-1E beta cells [1] = test: MTT viability assay in INS-1E beta cells; assay type: cell-based; details: for IC50: MTT, read-out: IC50, INS-1E cell viability; for Effect on INS-1E viability in the presence of MGX: 2.5 mM MGX; for PAL INS-1E Viability: in the presence of PAL; for Concentrations protecting against MGX-induced beta cell viability decrease: MGX 2.5 mM
Method: The INS-1E insulinoma pancreatic beta cell line (kindly provided by Prof. Claes Wollheim, University of Geneva) was cultured in RPMI 1640 (11 mM glucose, Sigma, St. Louis, MO, USA). The RPMI 1640 was supplemented with 100 U/mL penicillin, 100 μg/mL streptomycin, 2 mM L-glutamine, 1 mM Na pyruvate, 55 μM 2-mercaptoethanol, 10 mM HEPES, 1% nonessential amino acids, and 10% fetal bovine serum (pH 7.0–7.4). Cells were cultivated in a humidified incubator containing 5% CO2 at 37 °C. All experiments were conducted using cells from passages 40 to 70. […] Subsequent measurements were then performed using a cytotoxicity MTT assay and an insulin release assay.
The MTT (Sigma, St. Louis, MO, USA) reduction assay was used as an indicator of cell damage and was conducted following a standard protocol. INS-1E cells (5 × 10^4 cells per well) were seeded into 96-microwell plates. The cells were preincubated for different periods with or without various concentrations of individual compounds for 24 h (5% CO2 at 37 °C). MTT was introduced to achieve a final concentration of 0.5 mg/mL in an RPMI 1640 medium. Following a 4 h incubation, the MTT medium was removed. The addition of DMSO (100 µL) was added and left to stand for 15 min to solubilize the formazan formed. The absorbance was recorded at 570 nm using a microplate reader (Infinite M200, Tecan, Switzerland).

SERCA1a = target: T1, SERCA1a (Oryctolagus cuniculus, UniProt P04191); test: SERCA1a ATPase activity, NADH-coupled enzyme assay in sarcoplasmic reticulum vesicles; assay type: biochemical, rabbit; details: for IC50: read-out: IC50, reduction in SERCA1a activity; for Effect on SERCA1a activity in the presence of PAL: 0.65 mM PAL; for Effect on SERCA1a activity in the presence of MGX: 3 mM MGX; for Effect on SERCA1a activity: 2 min; for Concentration from which the SERCA1a activating effect starts: concentration-dependent activation; for PAL SERCA1a Activity: in the presence of PAL;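 as to all read-outs here: rabbit fast-twitch skeletal muscle SR vesicles with Ca2+ ionophore A23187, ATP hydrolysis rate followed as NADH absorbance loss at 340 nm, 37 °C, started by 10 µM CaCl2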
T1 construct: Sarcoplasmic reticulum (SR) vesicles were isolated from the fast-twitch skeletal muscle; from tissue; host or cells: rabbit fast-twitch skeletal muscle, sarcoplasmic reticulum vesicles

INS-1E beta cells [2] = test: Insulin release from INS-1E beta cells (RIA); assay type: cell-based; details: for Insulin release from non-stimulated cells / Insulin release from Glu-stimulated cells: 50 µM, except CUR and THCU 10 µM, 24 h; for Insulin release from non-stimulated cells / Insulin Secretion Non-Stimulated: 3 mM glucose; for Insulin release from Glu-stimulated cells / Insulin Secretion Stimulated: 16.7 mM glucose
Method: The INS-1E insulinoma pancreatic beta cell line (kindly provided by Prof. Claes Wollheim, University of Geneva) was cultured in RPMI 1640 (11 mM glucose, Sigma, St. Louis, MO, USA). The RPMI 1640 was supplemented with 100 U/mL penicillin, 100 μg/mL streptomycin, 2 mM L-glutamine, 1 mM Na pyruvate, 55 μM 2-mercaptoethanol, 10 mM HEPES, 1% nonessential amino acids, and 10% fetal bovine serum (pH 7.0–7.4). Cells were cultivated in a humidified incubator containing 5% CO2 at 37 °C. All experiments were conducted using cells from passages 40 to 70. The cells were pre-treated with various concentrations of individual compounds (5–200 μM) for 24 h with or without MGX (2.5 mM) and PAL (0.4 mM). Subsequent measurements were then performed using a cytotoxicity MTT assay and an insulin release assay.
Insulin release in response to glucose was measured in INS-1E beta cells ([…]). Briefly, after 24 h preincubation with individual compounds, beta cells were washed with a glucose-free KRBH buffer. Subsequently, cells were incubated at 37 °C for 30 min in a glucose-free KRBH buffer, followed by another 30 min incubation at 37 °C in a KRBH buffer containing either 3 mM glucose (non-stimulating concentration) or 16.7 mM glucose (insulin-stimulating concentration). The supernatants were then collected and analyzed using an RIA kit (Mercodia, Uppsala, Sweden) for insulin release, with rat insulin as the standard.

SERCA2 isoform = system: SERCA2 isoform; parameters: method as in Kang et al. [43] and Nguyen et al. [44]; details: ref Kang et al. [43] and Nguyen et al. [44]; cited from earlier work
[3] = SR vesicles, no stressor, read-out: EC50, SERCA1a activation

T1 sequence (P04191 1-994 isoform P04191-2): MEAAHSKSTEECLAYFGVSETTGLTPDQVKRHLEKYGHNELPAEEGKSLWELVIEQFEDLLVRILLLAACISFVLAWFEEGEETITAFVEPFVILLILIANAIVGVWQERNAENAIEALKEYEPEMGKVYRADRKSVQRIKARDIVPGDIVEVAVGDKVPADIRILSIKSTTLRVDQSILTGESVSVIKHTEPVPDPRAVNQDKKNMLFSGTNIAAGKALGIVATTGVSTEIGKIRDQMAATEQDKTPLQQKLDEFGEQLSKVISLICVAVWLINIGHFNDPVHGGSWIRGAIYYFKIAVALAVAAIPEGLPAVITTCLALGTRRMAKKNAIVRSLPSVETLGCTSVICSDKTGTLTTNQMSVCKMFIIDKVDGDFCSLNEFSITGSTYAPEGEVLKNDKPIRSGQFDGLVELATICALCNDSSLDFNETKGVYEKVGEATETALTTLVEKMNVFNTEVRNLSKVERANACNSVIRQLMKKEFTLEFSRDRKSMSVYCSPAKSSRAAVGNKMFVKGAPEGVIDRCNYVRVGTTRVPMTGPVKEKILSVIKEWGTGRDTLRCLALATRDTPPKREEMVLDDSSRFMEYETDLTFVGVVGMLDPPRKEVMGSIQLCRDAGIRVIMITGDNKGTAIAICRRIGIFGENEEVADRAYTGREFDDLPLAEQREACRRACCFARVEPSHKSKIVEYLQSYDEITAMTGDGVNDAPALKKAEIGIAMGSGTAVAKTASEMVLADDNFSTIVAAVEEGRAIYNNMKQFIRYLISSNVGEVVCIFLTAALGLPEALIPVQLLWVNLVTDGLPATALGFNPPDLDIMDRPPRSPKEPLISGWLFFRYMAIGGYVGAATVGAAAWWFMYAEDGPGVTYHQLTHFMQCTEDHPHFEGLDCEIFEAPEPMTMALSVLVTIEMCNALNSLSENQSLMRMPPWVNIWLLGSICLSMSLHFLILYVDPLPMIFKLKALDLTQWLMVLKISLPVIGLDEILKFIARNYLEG

CC(=O)C=O [MGX, methylglyoxal]
IC50 (INS-1E beta cells [1]): 2540 µM
IC50 (SERCA1a; SR vesicles): 2980 µM

O=c1oc2c(O)c(O)cc3c(=O)oc4c(O)c(O)cc1c4c23 [EA, Ellagic acid]
Effect on INS-1E viability in the presence of PAL (INS-1E beta cells [1]; 0.4 mM PAL, 5–200 μM): protection
Increase in SERCA1a activity (SERCA1a; 50 μM): approximately 150%
Effect on SERCA1a activity in the presence of PAL (SERCA1a; 50 µM): alleviated PAL-induced injury almost to control values
Effect on SERCA1a activity in the presence of PAL (SERCA1a; 5–200 μM): most profound protective effect
Effect on SERCA1a activity in the presence of MGX (SERCA1a; 5–200 μM): potent concentration-dependent protective effect
Effect on SERCA1a activity (SERCA1a; 5–200 μM): increase SERCA1a activity
EC50 (SERCA1a; [3]): 33.2 µM
Concentration from which the SERCA1a activating effect starts (SERCA1a): ≥ 30 µM
Insulin release from non-stimulated cells (INS-1E beta cells [2]): significant increase in insulin release
Insulin release from Glu-stimulated cells (INS-1E beta cells [2]): significant increase in insulin release

Oc1ccc(/C=C/c2cc(O)cc(O)c2)cc1 [RES, Resveratrol]
Effect on INS-1E viability in the presence of PAL (INS-1E beta cells [1]; 0.4 mM PAL, 5–200 μM): did not prevent the decrease
Effect on INS-1E viability in the presence of MGX (INS-1E beta cells [1]; 5–200 μM, 24 h): no effect; also recorded: did not prevent the decrease
MGX INS-1E Viability (INS-1E beta cells [1]; in the presence of MGX): -
PAL INS-1E Viability (INS-1E beta cells [1]): -
Effect on SERCA1a activity in the presence of MGX (SERCA1a; 5–200 μM): potent concentration-dependent protective effect
EC50 (SERCA1a; in the presence of MGX (3 mM), read-out: EC50, protection of SERCA1 activity against MGX): 112 µM
Insulin Secretion Non-Stimulated (INS-1E beta cells [2]): -
Insulin Secretion Stimulated (INS-1E beta cells [2]): -

CCCCCCCCCCCCCCCC(=O)O [PAL, palmitate]
IC50 (INS-1E beta cells [1]; INS-1E): 410 µM
IC50 (SERCA1a; SR vesicles): 650 µM

O=c1c(O)c(-c2cc(O)c(O)c(O)c2)oc2cc(O)cc(O)c12 [MYR, Myricetin]
Effect on INS-1E viability in the presence of PAL (INS-1E beta cells [1]; 0.4 mM PAL, 5–200 μM): highest degree of protection
INS-1E viability restored, % of the control cell value (INS-1E beta cells [1]; 0.4 mM PAL, 10 and 50 µM): approximately 80%
SERCA1a Activity (SERCA1a; control conditions): -
PAL SERCA1a Activity (SERCA1a): -

Curcumin
Effect on INS-1E viability in the presence of PAL (INS-1E beta cells [1]; 0.4 mM PAL, 5–200 μM): protection
Effect on INS-1E viability in the presence of MGX (INS-1E beta cells [1]; 5 and 10 µM): protective effect
Concentrations protecting against MGX-induced beta cell viability decrease (INS-1E beta cells [1]): < 20 µM
Effect on SERCA1a activity in the presence of PAL (SERCA1a; 5–200 μM): additional decrease in SERCA1a activity
Effect on SERCA1a activity in the presence of MGX (SERCA1a; 10 µM): prevented MGX-mediated decline
Effect on SERCA1a activity in the presence of MGX (SERCA1a; 20–50 µM): further decreased SERCA1a activity
Insulin release from non-stimulated cells (INS-1E beta cells [2]): significant increase in insulin release
Insulin release from Glu-stimulated cells (INS-1E beta cells [2]): significant increase in insulin release

Oc1cc(O)c2cc(O)c(-c3ccc(O)c(O)c3)[o+]c2c1 [CYA, Cyanidin chloride]
Effect on SERCA1a activity (SERCA1a; 5–200 μM): increase SERCA1a activity

Oc1cc(O)cc(/C=C/c2ccc(O)cc2O)c1 [ORES, Oxyresveratrol]
PAL INS-1E Viability (INS-1E beta cells [1]): -
Effect on SERCA1a activity in the presence of MGX (SERCA1a; 5–200 μM): further decreased SERCA1a activity
PAL SERCA1a Activity (SERCA1a): -
Insulin Secretion Non-Stimulated (INS-1E beta cells [2]): -

CCCCC[C@H](O)CC(=O)CCc1ccc(O)c(OC)c1 [GIN, [6]-Gingerol]
Effect on SERCA1a activity in the presence of PAL (SERCA1a; 5–200 μM): protective effect
Effect on SERCA1a activity in the presence of PAL (SERCA1a; 50 and 100 μM): protected against the decrease in SERCA1 activity
Effect on SERCA1a activity in the presence of MGX (SERCA1a; 5–200 μM): potent concentration-dependent protective effect
Effect on SERCA1a activity in the presence of MGX (SERCA1a; 100–200 μM): protected against the decrease in SERCA1 activity
Effect on SERCA1a activity (SERCA1a; 5–200 μM): increase SERCA1a activity
EC50 (SERCA1a; [3]): 36.9 µM
Concentration from which the SERCA1a activating effect starts (SERCA1a): ≥ 30 µM
Insulin release from non-stimulated cells (INS-1E beta cells [2]): did not induce an increase
Insulin release from Glu-stimulated cells (INS-1E beta cells [2]): slight increase
Insulin Secretion Non-Stimulated (INS-1E beta cells [2]): -

CCCCC/C=C/C(=O)CCc1ccc(O)c(OC)c1 [SHO, [6]-Shogaol]
Effect on SERCA1a activity in the presence of PAL (SERCA1a; 5–200 μM): additional decrease in SERCA1a activity; also recorded: no preventive effect
Effect on SERCA1a activity in the presence of MGX (SERCA1a; 5–200 μM): further decreased SERCA1a activity; also recorded: no preventive effect
Effect on SERCA1a activity (SERCA1a; 5–200 μM): does not
Insulin Secretion Non-Stimulated (INS-1E beta cells [2]): -
Insulin Secretion Stimulated (INS-1E beta cells [2]): -

COc1cc(CCC(=O)CC(=O)CCc2ccc(O)c(OC)c2)ccc1O [THCU, Tetrahydrocurcumin]
Effect on INS-1E cell viability (INS-1E beta cells [1]; 20 µM, 24 h): stimulating effect on cell viability
Effect on INS-1E viability in the presence of MGX (INS-1E beta cells [1]; 20 µM): protective effect
Concentrations protecting against MGX-induced beta cell viability decrease (INS-1E beta cells [1]): < 20 µM
MGX SERCA1a Activity (SERCA1a; in the presence of MGX): -
PAL SERCA1a Activity (SERCA1a): -
Insulin release from non-stimulated cells (INS-1E beta cells [2]): significant increase in insulin release
Insulin release from Glu-stimulated cells (INS-1E beta cells [2]): significant increase in insulin release

Cc1ccc2cccc(NC(=O)c3ccc(OC(C)C)cc3)c2n1 [CDN1163]
Concentrations required for efficient SERCA activation (SERCA2 isoform): 1 to 10 µM
